Experiment in all cases: HTS ATP-utilizing enzyme assay, off-chip mobility-shift (Caliper HTS 250)
What all share (assay type): biochemical
What all share (settings): test compound 10 μM, kinase listed = active (greater than six-sigma from the mean activity of inactive compounds)

In one test the target is T1, PRAK (Homo sapiens, UniProt Q8IW41).
T1 sequence (Q8IW41 1-473): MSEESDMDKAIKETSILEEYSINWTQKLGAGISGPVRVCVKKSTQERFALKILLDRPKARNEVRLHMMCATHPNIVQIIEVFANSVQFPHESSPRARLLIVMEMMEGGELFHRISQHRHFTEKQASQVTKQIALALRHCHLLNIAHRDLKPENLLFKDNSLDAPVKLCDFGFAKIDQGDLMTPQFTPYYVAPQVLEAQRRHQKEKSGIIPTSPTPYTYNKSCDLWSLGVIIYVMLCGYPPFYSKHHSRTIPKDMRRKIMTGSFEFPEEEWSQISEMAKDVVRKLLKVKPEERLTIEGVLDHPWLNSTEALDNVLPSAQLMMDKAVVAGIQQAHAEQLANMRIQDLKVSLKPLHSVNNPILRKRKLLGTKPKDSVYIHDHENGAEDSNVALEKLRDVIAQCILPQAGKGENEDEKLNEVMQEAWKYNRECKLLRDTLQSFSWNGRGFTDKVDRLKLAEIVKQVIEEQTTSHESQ
The essentials:
(§1)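 Single-point screen, 10 μM compound; kinase + peptide substrate, HEPES pH 7.5/Triton X-100/BSA; 2.5 hrs, 20–22° C.; EDTA stop. Readout: substrate vs phosphoproduct ratio by off-chip mobility shift. Hits called at six-sigma limits.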

In the next test the target is C-TAK1 (Homo sapiens, UniProt P27448). Put shortly:
as §1

In a further test the target is T2, BMX (Homo sapiens, UniProt P51813).
T2 sequence (P51813 1-675): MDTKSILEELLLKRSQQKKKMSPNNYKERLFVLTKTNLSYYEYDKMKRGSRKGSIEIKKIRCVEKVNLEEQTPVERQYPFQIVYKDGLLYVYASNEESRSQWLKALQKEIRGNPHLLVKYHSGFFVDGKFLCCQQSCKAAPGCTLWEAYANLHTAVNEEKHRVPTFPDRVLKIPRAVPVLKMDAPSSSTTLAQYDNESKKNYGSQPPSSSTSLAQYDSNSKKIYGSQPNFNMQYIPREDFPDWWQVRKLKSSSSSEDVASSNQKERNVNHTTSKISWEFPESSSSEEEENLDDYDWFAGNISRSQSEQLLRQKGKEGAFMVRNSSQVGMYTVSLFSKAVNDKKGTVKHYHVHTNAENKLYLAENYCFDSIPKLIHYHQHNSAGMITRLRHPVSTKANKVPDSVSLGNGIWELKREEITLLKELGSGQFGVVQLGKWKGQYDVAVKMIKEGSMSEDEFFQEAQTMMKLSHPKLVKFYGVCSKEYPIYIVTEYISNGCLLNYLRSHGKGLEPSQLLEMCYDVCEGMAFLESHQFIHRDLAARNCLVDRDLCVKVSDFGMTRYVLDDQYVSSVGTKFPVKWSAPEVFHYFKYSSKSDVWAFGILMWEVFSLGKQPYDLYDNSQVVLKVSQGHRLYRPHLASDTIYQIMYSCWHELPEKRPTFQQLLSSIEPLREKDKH
The essentials: as §1

For a further test, the target named is KIT (Homo sapiens, UniProt P10721). Put shortly: as §1
Sequence of KIT (P10721 26-976): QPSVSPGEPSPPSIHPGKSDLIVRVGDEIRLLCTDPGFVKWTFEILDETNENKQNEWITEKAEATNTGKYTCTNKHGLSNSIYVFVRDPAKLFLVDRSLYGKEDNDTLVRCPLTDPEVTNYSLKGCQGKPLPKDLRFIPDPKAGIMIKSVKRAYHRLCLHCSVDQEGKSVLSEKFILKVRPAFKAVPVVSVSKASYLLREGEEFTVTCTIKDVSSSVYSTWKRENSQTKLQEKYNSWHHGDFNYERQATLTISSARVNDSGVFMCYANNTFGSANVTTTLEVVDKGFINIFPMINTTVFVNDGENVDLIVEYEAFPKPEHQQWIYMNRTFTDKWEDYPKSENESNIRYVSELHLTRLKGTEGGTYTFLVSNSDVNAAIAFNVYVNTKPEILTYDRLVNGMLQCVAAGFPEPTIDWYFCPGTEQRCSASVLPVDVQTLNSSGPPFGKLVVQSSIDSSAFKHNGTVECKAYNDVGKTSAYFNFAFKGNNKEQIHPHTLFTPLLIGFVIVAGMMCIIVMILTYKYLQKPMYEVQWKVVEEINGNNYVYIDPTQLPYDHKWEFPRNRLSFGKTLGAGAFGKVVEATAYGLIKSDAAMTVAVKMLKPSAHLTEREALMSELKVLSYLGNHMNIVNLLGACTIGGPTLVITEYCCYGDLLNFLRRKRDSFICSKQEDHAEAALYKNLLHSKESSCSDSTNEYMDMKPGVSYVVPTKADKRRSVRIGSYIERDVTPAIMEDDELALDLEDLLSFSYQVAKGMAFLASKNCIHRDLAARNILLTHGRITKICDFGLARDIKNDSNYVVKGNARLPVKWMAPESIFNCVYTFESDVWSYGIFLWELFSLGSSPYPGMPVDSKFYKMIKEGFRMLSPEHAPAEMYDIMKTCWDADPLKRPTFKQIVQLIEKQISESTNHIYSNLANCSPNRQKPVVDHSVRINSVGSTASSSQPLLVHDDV

Sequence of C-TAK1 (P27448 whole entry): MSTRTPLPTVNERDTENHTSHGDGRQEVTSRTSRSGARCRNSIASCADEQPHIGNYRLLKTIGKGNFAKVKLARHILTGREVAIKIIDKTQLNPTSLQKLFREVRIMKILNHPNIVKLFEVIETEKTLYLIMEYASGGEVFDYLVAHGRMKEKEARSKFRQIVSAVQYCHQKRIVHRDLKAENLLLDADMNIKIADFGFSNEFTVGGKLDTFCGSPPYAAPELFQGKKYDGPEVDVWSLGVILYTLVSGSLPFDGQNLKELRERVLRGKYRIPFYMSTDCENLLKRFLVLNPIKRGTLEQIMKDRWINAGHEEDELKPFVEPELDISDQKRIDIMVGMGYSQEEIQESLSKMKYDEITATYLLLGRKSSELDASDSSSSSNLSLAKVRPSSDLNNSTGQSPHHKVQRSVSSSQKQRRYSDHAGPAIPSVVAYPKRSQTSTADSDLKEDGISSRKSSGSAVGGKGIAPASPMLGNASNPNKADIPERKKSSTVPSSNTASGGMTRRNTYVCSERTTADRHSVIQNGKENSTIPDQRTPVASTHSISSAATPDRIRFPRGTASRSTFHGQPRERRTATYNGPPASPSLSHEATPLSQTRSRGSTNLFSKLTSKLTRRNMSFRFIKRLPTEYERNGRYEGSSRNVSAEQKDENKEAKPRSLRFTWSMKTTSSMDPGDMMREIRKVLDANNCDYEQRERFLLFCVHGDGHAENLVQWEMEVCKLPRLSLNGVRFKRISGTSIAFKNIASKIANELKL

`CN1CCN(c2ccc(Nc3ccnc4ccc(-c5ccc(F)cc5)cc34)cc2)CC1` [6-(4-fluorophenyl)-N-(4-(4-methylpiperazin-1-yl)phenyl)quinolin-4-amine]: the results for the Activity entry at PRAK and on C-TAK1 were “PRAK” and “C-TAK1”, respectively.
Turning to `Cc1ccccc1-c1ccc2nccc(Nc3ccc(N4CCN(C)CC4)cc3)c2c1` [N-(4-(4-methylpiperazin-1-yl)phenyl)-6-o-tolylquinolin-4-amine], the Activity entry on PRAK is given as “PRAK”; on BMX it was “BMX”.
As for `CN1CCN(c2ccc(Nc3ccnc4ccc(-c5ccncc5)cc34)cc2)CC1` [N-(4-(4-methylpiperazin-1-yl)phenyl)-6-(pyridin-4-yl)quinolin-4-amine], the Activity result on PRAK is reported as “PRAK”; at KIT, “KIT”.
Taken in the same sequence, the figures for `c1ccc(-c2ccc3nccc(Nc4ccc(N5CCNCC5)cc4)c3c2)cc1` [6-phenyl-N-(4-(piperazin-1-yl)phenyl)quinolin-4-amine] were “PRAK” and “KIT”.
Take `CN1CCN(c2ccc(Nc3ccnc4ccc(-c5ccc(O)cc5)cc34)cc2)CC1` [4-(4-(4-(4-methylpiperazin-1-yl)phenylamino)quinolin-6-yl)phenol]: the Activity result at PRAK is recorded as “PRAK”.
Consider `CN1CCN(c2ccc(Nc3ccnc4ccc(-c5cccc6ccccc56)cc34)cc2)CC1` [N-(4-(4-methylpiperazin-1-yl)phenyl)-6-(naphthalen-1-yl)quinolin-4-amine], for which the Activity result on PRAK is “PRAK”; on BMX, “BMX”; on KIT, “KIT”; on C-TAK1 it was “C-TAK1”.
For `COc1ccc(-c2ccc3nccc(N(C)c4ccc(N5CCN(C)CC5)cc4)c3c2)cc1` [6-(4-methoxyphenyl)-N-methyl-N-(4-(4-methylpiperazin-1-yl)phenyl)quinolin-4-amine], the Activity entry at BMX was “BMX”; on KIT, “KIT”.
In the case of `COc1ccc(-c2ccc3nccc(Nc4ccc(N5CCNCC5)cc4)c3c2)cc1` [6-(4-methoxyphenyl)-N-(4-(piperazin-1-yl)phenyl)quinolin-4-amine], the values for the Activity entry on PRAK and at KIT were “PRAK” and “KIT”, respectively.
As to `CN1CCN(c2ccc(Nc3ccnc4ccc(-c5ccc6ccccc6c5)cc34)cc2)CC1` [N-(4-(4-methylpiperazin-1-yl)phenyl)-6-(naphthalen-2-yl)quinolin-4-amine], the figures for the Activity entry on PRAK, at BMX and at C-TAK1 were “PRAK”, “BMX” and “C-TAK1”, respectively.

The values are drawn from patent publication US7452887B2, “Quinoline- and isoquinoline-based compounds exhibiting ATP-utilizing enzyme inhibitory activity, and compositions, and uses thereof” (Amphora Discovery Corporation, priority 2004, dated 2008).
